Assay [1] addresses T1, CCK receptor (brain) (Cavia porcellus, UniProt H0VZC5).
T1 construct: the cortex was removed and homogenized in 25 mL ice-cold 0.32M sucrose; from tissue; host or cells: cortex of male Hartley guinea pigs, P2 membranes
T1 sequence (H0VZC5 1-426): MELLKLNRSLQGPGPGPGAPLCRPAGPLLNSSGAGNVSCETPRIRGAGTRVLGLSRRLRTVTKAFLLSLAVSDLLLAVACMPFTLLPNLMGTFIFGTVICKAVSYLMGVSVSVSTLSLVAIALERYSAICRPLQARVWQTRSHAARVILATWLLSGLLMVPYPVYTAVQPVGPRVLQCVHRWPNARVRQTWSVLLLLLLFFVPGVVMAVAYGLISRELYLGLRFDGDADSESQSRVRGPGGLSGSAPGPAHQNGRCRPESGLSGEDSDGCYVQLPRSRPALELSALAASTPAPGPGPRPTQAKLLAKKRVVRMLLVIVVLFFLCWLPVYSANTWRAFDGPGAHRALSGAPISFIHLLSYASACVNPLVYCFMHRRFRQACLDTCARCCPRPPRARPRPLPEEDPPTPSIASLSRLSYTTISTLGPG
The assay is described as follows: CCK Receptor Binding (Brain), inhibition of specific 125I-CCK-8 binding. Further details: species or system guinea pig (male Hartley). On the procedure:
2. CCK Receptor Binding (Brain)
CCK-8 sulphated was radiolabelled and the binding was performed according to the description for the pancreas method with minor modifications.
Male Hartley guinea pigs (300-500 g) were sacrificed by decapitation and the cortex was removed and homogenized in 25 mL ice-cold 0.32M sucrose. The homogenates were centrifuged at 1000 g for 10 minutes and the resulting supernatant was recentrifuged at 20,000 g for 20 minutes. The P2 pellet was resuspended in binding assay buffer (20mM HEPES, 5 mM MgCl2, 0.25 mg/ml bacitracin, 1 mM EGTA pH 6.5 at 25° C.), using a Teflon (trademark) homogenizer (5 strokes at 500 rpm) to give a final concentration of 10 mg original wet weight/1.2 ml buffer. […] All assays were run in duplicate. The reaction mixtures were incubated at 25° C. for 2 hours and then the reaction was terminated by rapid filtration (Brandell 24 well cell harvester) on Whatman GF/C filters with 3×5 ml washes of cold 100 mM NaCl. The radioactivity on the filters was counted with a LKB gamma counter.

Assay [2] addresses T2, CCK receptor (pancreas) (Rattus norvegicus, UniProt P30551).
T2 construct: The whole pancreas was dissected free of fat tissue and was homogenized; from tissue; host or cells: whole pancreas of male Sprague-Dawley rats, homogenate membranes
T2 sequence (P30551 1-444): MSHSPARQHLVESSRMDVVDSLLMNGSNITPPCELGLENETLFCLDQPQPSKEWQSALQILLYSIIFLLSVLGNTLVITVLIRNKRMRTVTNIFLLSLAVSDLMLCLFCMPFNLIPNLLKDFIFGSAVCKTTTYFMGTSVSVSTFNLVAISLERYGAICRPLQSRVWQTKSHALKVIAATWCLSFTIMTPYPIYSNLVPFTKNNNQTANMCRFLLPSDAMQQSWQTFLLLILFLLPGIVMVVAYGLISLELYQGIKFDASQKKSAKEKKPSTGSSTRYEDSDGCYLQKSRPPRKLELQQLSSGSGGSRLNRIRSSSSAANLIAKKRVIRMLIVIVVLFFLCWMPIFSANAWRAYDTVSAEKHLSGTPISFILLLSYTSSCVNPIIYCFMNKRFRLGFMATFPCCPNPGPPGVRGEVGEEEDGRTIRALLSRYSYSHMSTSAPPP
The assay is described as follows: CCK Receptor Binding (Pancreas), inhibition of specific 125I-CCK-8 binding. Further details: species or system rat (male Sprague-Dawley). Here is the method:
1. CCK Receptor Binding (Pancreas)
CCK-8 sulphated was radiolabelled with ^125 I-Bolton Hunter reagent (2000 Ci/mmole). Receptor binding was performed according to Chang and Lotti (Proc. Natl. Acad. Sci. 83, 4923-4926, 1986) with minor modifications.
Male Sprague-Dawley rats (150-200 g) were sacrificed by decapitation. The whole pancreas was dissected free of fat tissue and was homogenized in 25 volumes of ice-cold 10 mM N-2-hydroxyethyl-piperazine-N'-2-ethane sulphonic acid (HEPES) buffer with 0.1% soya bean trypsin inhibitor (pH 7.4 at 25° C.) with a Kinematica Polytron. The homogenates were centrifuged at 47,800 g for 10 min. Pellets were resuspended in 10 volumes of binding assay buffer (20 mM (HEPES)), 1 mM ethylene glycol-bis-(β-aminoethylether-N,N'-tetraacetic acid) (EGTA), 5 mM MgCl2, 150 mM NaCl, bacitracin 0.25 mg/ml, soya bean trypsin inhibitor 0.1 mg/ml, and bovine serum albumin 2 mg/ml pH 6.5 at 25° C.) using a Teflon (trademark) homogenizer, 15 strokes at 500 rpm. The homogenate was further diluted in binding assay buffer to give a final concentration of 0.5 mg original wet weight/1 ml buffer. […] All assays were run in duplicate. The reaction mixtures were incubated at 25° C. for 2 hours and the reaction terminated by rapid filtration (Brandell 24 well cell harvester) over Whatman GF/C filters, washing 3×4 mls with ice-cold 100 Mm NaCl. The radioactivity on the filters was counted with a LKB gamma counter.

Where [3] appears, read: guinea pig cortex membranes, 50 pM 125I-CCK-8, 25° C., 2 hours, pH 6.5, read-out: IC50 125I-CCK Brain.
[4] abbreviates: rat pancreas membranes, 50 pM 125I-CCK-8, 25° C., 2 hours, pH 6.5, read-out: IC50 125I-CCK Pancreas.

Like-named read-outs stand apart in the source and are kept apart here. Bounds are passed on as bounds.

As for `CN1C(=O)C(NC(=O)Nc2cccc(N(C)c3nnn[nH]3)c2)N=C(C2CCCCC2)c2ccccc21` (racemic) [Example 3, N-[3(R,S)-5-Cyclohexyl-2,3-dihydro-1-methyl-2-oxo-1H-1,4-benzodiazepin-3-yl]-N'-[3-{N-methyl-N-(tetrazol-5-yl)amino}phenyl]urea], the IC50 stood at 0.11 nM in assay [1] (setting [3]) and 10 nM in assay [2] (setting [4]). With `CN1C(=O)C(C)(NC(=O)Nc2cccc(CNc3nnn[nH]3)c2)N=C(c2ccccc2)c2ccccc21` (racemic) [Example 15, N-[3-(R,S)-2,3-Dihydro-1,3-dimethyl-2-oxo-5-phenyl-1H-1,4-benzodiazepin-3-yl]-N'-[3-{(tetrazol-5-yl)aminomethyl}phenyl]urea], the IC50 in assay [1] (setting [3]) worked out at 1300 nM; in assay [2], 42.8 nM. For the compound `CN1C(=O)C(NC(=O)Nc2cccc(CNc3nnn[nH]3)c2)N=C(C2CCCCC2)c2ccccc21` (racemic) [Example 1, N-[3(R,S)-5-Cyclohexyl-2,3-dihydro-1-methyl-2-oxo-1H-1,4-benzodiazepin-3-yl]-N'-[3-{(tetrazol-5-yl)aminomethyl}phenyl]urea], the values for the IC50 in assay [1] (setting [3]) and in assay [2] (setting [4]) were 0.82 nM and 9.5 nM, respectively. On to `CN1C(=O)[C@H](NC(=O)Nc2cccc(Nc3nnn[nH]3)c2)N=C(C2CCCCC2)c2ccccc21` [Example 5, (+)-N-[3(R)-5-Cyclohexyl-2,3-dihydro-1-methyl-2-oxo-1H-1,4-benzodiazepin-3-yl]-N'-[3-{(tetrazol-5-yl)amino}phenyl]urea], for which the IC50 in assay [1] (setting [3]) was 0.7 nM; in assay [2] (setting [4]), 200 nM. Regarding `CN1C(=O)C(NC(=O)Nc2cccc(Nc3nnn[nH]3)c2)N=C(C2CCCCC2)c2ccccc21` (racemic) [Example 2, N-[3(R,S)-5-Cyclohexyl-2,3-dihydro-1-methyl-2-oxo-1H-1,4-benzodiazepin-3-yl]-N'-[3-{(tetrazol-5-yl)amino}phenyl]urea], the IC50 in assay [1] (setting [3]) is 0.31 nM; in assay [2] (setting [4]) it was 6.5 nM. On to `CN1C(=O)[C@H](NC(=O)Nc2cccc(N(C)c3nnn[nH]3)c2)N=C(C2CCCCC2)c2ccccc21` [Example 4, (+)-N-[3(R)-5-Cyclohexyl-2,3-dihydro-1-methyl-2-oxo-1H-1,4-benzodiazepin-3-yl]-N'-[3-{N-methyl-N-(tetrazol-5-yl)amino}phenyl]urea], for which the IC50 in assay [1] (setting [3]) was determined as 0.1 nM; in assay [2] (setting [4]), 400 nM. Consider `CN1C(=O)[C@H](NC(=O)Nc2ccc3c(c2)N(c2nn[nH]n2)CC3)N=C(c2ccccc2)c2ccccc21` [Example 14, (+)-N-[3(R)-2,3-Dihydro-1-methyl-2-oxo-5-phenyl-1H-1,4-benzodiazepin-3-yl]-N'-[1-(tetrazol-5yl)indolin-6-yl]urea], for which the IC50 in assay [1] amounted to 0.11 nM. As for `CCCN1C(=O)C(NC(=O)Nc2cccc(CNc3ncc[nH]3)c2)N=C(C2CCCCC2)c2ccccc21` (racemic) [Example 18, N-[3(R,S)-5-Cyclohexyl-2,3-dihydro-2-oxo-1-propyl-1H-1,4-benzodiazepin-3-yl]N'-[3-[(1H-imidazol-2-ylamino)methyl]phenyl]urea], the IC50 was determined as 14 nM in assay [1] (setting [3]) and 109 nM in assay [2] (setting [4]).

Take `CN1C(=O)[C@H](NC(=O)Nc2cccc(CNc3nnn[nH]3)c2)N=C(C2CCCCC2)c2ccccc21` [Example 6, (+)-N-[3(R)-5-Cyclohexyl-2,3-dihydro-1-methyl-2-oxo-1H-1,4-benzodiazepin-3-yl]-N'-[3-{(tetrazol-5-yl)aminomethyl}phenyl]urea]: the figures for the IC50 in assay [1] (setting [3]) and in assay [2] (setting [4]) were 0.284 nM and 153 nM, respectively. Consider `CCCN1C(=O)C(NC(=O)Nc2cccc(N(C)c3nnn[nH]3)c2)N=C(N2CCN(C)CC2)c2ccccc21` (single isomer, unassigned; (-)) [Example 17, (-)-N-[2,3-Dihydro-5-(4-methylpiperazin-1-yl)-2-oxo-1-propyl-1H-1,4-benzodiazepin-3-yl]-N'-[3-{N-methyl-N-(tetrazol-5-yl)amino}phenyl]urea], for which the IC50 is 0.93 nM in assay [1] (setting [3]) and above 3000 nM in assay [2] (setting [4]). Take `Cc1ccc(NC(=O)N[C@@H]2N=C(c3ccccc3)c3ccccc3N(C)C2=O)cc1Nc1nn[nH]n1` [Example 12, (+)-N-[3(R)-2,3-Dihydro-1-methyl-2-oxo-5-phenyl-1H-1,4-benzodiazepin-3-yl]-N'-[4-methyl-3-{(tetrazol-5-yl)amino}phenyl]urea]: the IC50 in assay [1] is 1.09 nM; in assay [2], above 3000 nM. `Cc1ccc(NC(=O)NC2N=C(c3ccccc3)c3ccccc3N(C(C)(C)C)C2=O)cc1Nc1nnn[nH]1` (racemic) [Example 16, N-[3(R,S)-1-tert-Butyl-2,3-dihydro-2-oxo-5-phenyl-1H-1,4-benzodiazepin-3-yl]-N'-[4-methyl-3-{(tetrazol-5-yl)amino}phenyl]urea]: the IC50 in assay [1] (setting [3]) turned out to be 497 nM; in assay [2], 3610 nM. As for `CN1C(=O)C(NC(=O)Nc2cccc(CNc3ncc[nH]3)c2)N=C(C2CCCCCC2)c2ccccc21` (racemic) [Example 20, N-[3(R,S)-5-Cycloheptyl-2,3-dihydro-1-methyl-2-oxo-1H -1,4-benzodiazepin-3-yl]N'-[3-[(1H-imidazol-2-ylamino)methyl]phenyl]urea], the half-maximal inhibitory concentration (IC50) in assay [1] (setting [3]) was found to be 33.9 nM; in assay [2] (setting [4]) it was 84.5 nM.

`CCCN1C(=O)C(NC(=O)Nc2cccc(Nc3ncc[nH]3)c2)N=C(C2CCCCC2)c2ccccc21` (racemic) [Example 19, N-[3(R,S)-5-Cyclohexyl-2,3-dihydro-2-oxo-1-propyl-1H-1,4-benzodiazepin-3-yl]N'-[3-[(1H-imidazol-2-yl)amino]phenyl]urea]: the IC50 in assay [1] (setting [3]) was 82.9 nM; in assay [2] (setting [4]), 1.33 nM. As to `CN1C(=O)[C@H](NC(=O)Nc2cccc(N(C)c3nn[nH]n3)c2)N=C(c2ccccc2)c2ccccc21` [Example 7, (+)-N-[3(R)-2,3-Dihydro-1-methyl-2-oxo-5-phenyl-1H-1,4-benzodiazepin-3-yl]-N'-[3-{N-methyl-N-(tetrazol-5-yl)amino}phenyl]urea], the IC50 in assay [1] was 0.575 nM; in assay [2] it was above 3000 nM. As to `CN1C(=O)[C@H](NC(=O)Nc2cccc(CNc3nn[nH]n3)c2)N=C(c2ccccc2)c2ccccc21` [Example 9, (+)-N-[3(R)-2,3-Dihydro-1-methyl-2-oxo-5-phenyl-1H-1,4-benzodiazepin-3-yl]-N'-[3-{(tetrazol-5-yl)aminomethyl}phenyl]urea], the results for the IC50 in assay [1] and in assay [2] were 7.4 nM and above 3000 nM, respectively.

In the case of `Cc1ccc(NC(=O)N[C@@H]2N=C(C3CCCCC3)c3ccccc3N(C)C2=O)cc1N(C)c1nn[nH]n1` [Example 11, (+)-N-[3(R)-5-Cyclohexyl-2,3-dihydro-1-methyl-2-oxo-1H-1,4-benzodiazepin-3-yl]-N'-[4-methyl-3-{N-methyl-N-(tetrazol-5-yl)amino}phenyl]urea], the half-inhibitory concentration (IC50) in assay [2] (setting [4]) is 600 nM.

The values above are taken from patent publication US5681833A, “Benzodiazepine derivatives” (Merck, Sharp & Dohme Ltd., priority 1992, dated 1997).
